Measurements as given in ChEMBL document CHEMBL4265961, “Efficient optimization of pyrazolo[3,4-d]pyrimidines derivatives as c-Src kinase inhibitors in neuroblastoma treatment” (Bioorg Med Chem Lett, 2018).
In brackets after ≈: the same amount, converted by molar mass. Activity calls are given as the source filed them. No cut-off for these calls is given here.

Assays:
[1] = Metabolic stability in human liver microsomes after 60 mins in presence of NADPH by UV/LC-MS analysis; type: ADME, microsome; conditions: read-out: Stability
[2] = Apparent permeability of the compound after 5 hrs by PAMPA; type: ADME
[3] = Aqueous solubility in water at 1 mg after 24 hrs at 20 degC by UV/LC-MS analysis; type: physicochemical
SH-SY5Y [4] = test: Antiproliferative activity against human SH-SY5Y cells after 72 hrs by nucleo cell counting method
SH-SY5Y [5] = test: Antiproliferative activity against human SH-SY5Y cells at 1 to 10 uM after 72 hrs by nucleo cell counting method; type: functional, cell-based
SH-SY5Y [6] = test: Cell cycle arrest in human SH-SY5Y cells assessed as accumulation at G1 phase after 48 hrs by propidium iodide staining based flow cytometry; type: functional

| SMILES | remaining at 1 h [1] [%] | Papp at 5 h [2] [×10⁻⁶ cm/s] | solubility at 24 h [3] [µg/mL] | IC50 (SH-SY5Y [4]) [µM] | Activity (SH-SY5Y [5]) | Activity (SH-SY5Y [6]) |
| --- | --- | --- | --- | --- | --- | --- |
| CC(Cn1ncc2c(Nc3cc(O)ccc3Cl)nc(SCCN3CCOCC3)nc21)c1ccccc1 (stereo not drawn) | 97.9 | 11.2 | 0.031 (≈ 0.059 µM) | – | – | – |
| OCCNc1nc(Nc2cc(O)ccc2Cl)c2cnn(CC(Cl)c3ccccc3)c2n1 (stereo not drawn) | 97.2 | 2.7 | 0.042 (≈ 0.0914 µM) | 3.1 | Active | Dose-dependent effect |
| Oc1ccc(Cl)c(Nc2nc(SCCN3CCOCC3)nc3c2cnn3CC(Cl)c2ccccc2)c1 (stereo not drawn) | 96.9 | 9.74 | – | 6.6 | Active | – |
| CC(C)Sc1nc(Nc2cccc(O)c2)c2cnn(CC(Cl)c3ccccc3)c2n1 (stereo not drawn) | 93.5 | – | – | – | – | – |
| CC(Cn1ncc2c(Nc3cccc(O)c3)nc(SCCN3CCOCC3)nc21)c1ccccc1 (stereo not drawn) | 99 | 6.81 | 0.1 (≈ 0.204 µM) | – | – | – |
| CC(Cn1ncc2c(Nc3cccc(O)c3)nc(NCCO)nc21)c1ccccc1 (stereo not drawn) | 99.4 | 0.2 | 134 (≈ 332 µM) | – | – | – |
| Oc1ccc(Cl)c(Nc2ncnc3c2cnn3CC(Cl)c2ccccc2)c1 (stereo not drawn) | 86.3 | 4.39 | 0.053 (≈ 0.132 µM) | – | – | – |
| Oc1cccc(Nc2nc(SCCN3CCOCC3)nc3c2cnn3CC(Cl)c2ccccc2)c1 (stereo not drawn) | 98.7 | 4.44 | 0.197 (≈ 0.385 µM) | – | – | – |
| CC(Cn1ncc2c(Nc3cc(O)ccc3Cl)nc(NCCN)nc21)c1ccccc1 (stereo not drawn) | 98.4 | 2.2 | 0.1 (≈ 0.228 µM) | – | – | – |
| CSc1nc(Nc2cc(O)ccc2Cl)c2cnn(CC(C)c3ccccc3)c2n1 (stereo not drawn) | 92.7 | 8.33 | – | 6.7 | Active | – |
| CSc1nc(Nc2cc(O)ccc2Cl)c2cnn(CC(Cl)c3ccccc3)c2n1 (stereo not drawn) | 96.4 | 3.23 | – | – | – | – |
| CC(Cn1ncc2c(Nc3cc(O)ccc3Cl)nc(NCCO)nc21)c1ccccc1 (stereo not drawn) | 97.9 | 0.1 | 0.103 (≈ 0.235 µM) | – | – | – |
